Test results as given in PubChem BioAssay AID2060328 (Molecular Pharmacology Branch, DTP, NCI, 2025).
Several values for one entry are separate records, joined by “and”; a condition that tells them apart may be missing. Equal values may be shown once.

Test system: MDA-MB-231 multicell spheroids, viability (%T/C)
Test: Anticancer human tumor MDA-MB-231 cell line growth inhibition [IpAb];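 note: viability read after seven days of drug exposure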;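 for viability, T/C: 100% = DMSO vehicle control viability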
Settings: for viability, T/C: stronger effect = lower value
Summary of the method: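 Multi-cell spheroids of 60% tumour cells, 25% HUVEC and 15% MSC in ultra-low-attachment U-bottom wells, treated with agents combined with ipatasertib or abemaciclib. Half-log ranges top out near clinical Cmax, or 10 microM when Cmax is unknown.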

[1] = curve of first compound, second compound 0.1 µM
[2] = curve of first compound, second compound 0.316 µM
[3] = curve of first compound, second compound 1 µM
[4] = second compound 0.1 µM, first compound 0.0316 µM
[5] = second compound 0.1 µM, first compound 0.1 µM
[6] = second compound 0.1 µM, first compound 0.316 µM
[7] = second compound 0.1 µM, first compound 1 µM
[8] = second compound 0.1 µM, first compound 3.16 µM
[9] = second compound 0.1 µM, first compound 10 µM
[10] = second compound 0.316 µM, first compound 0.0316 µM
[11] = second compound 0.316 µM, first compound 0.1 µM
[12] = second compound 0.316 µM, first compound 0.316 µM
[13] = second compound 0.316 µM, first compound 1 µM
[14] = second compound 0.316 µM, first compound 3.16 µM
[15] = second compound 0.316 µM, first compound 10 µM
[16] = second compound 1 µM, first compound 0.0316 µM
[17] = second compound 1 µM, first compound 0.1 µM
[18] = second compound 1 µM, first compound 0.316 µM
[19] = second compound 1 µM, first compound 1 µM
[20] = second compound 1 µM, first compound 3.16 µM
[21] = second compound 1 µM, first compound 10 µM
[22] = curve of first compound, second compound 3.16 µM
[23] = curve of first compound, second compound 10 µM
[24] = second compound 3.16 µM, first compound 0.0316 µM
[25] = second compound 3.16 µM, first compound 0.1 µM
[26] = second compound 3.16 µM, first compound 0.316 µM
[27] = second compound 3.16 µM, first compound 1 µM
[28] = second compound 10 µM, first compound 0.0316 µM
[29] = second compound 10 µM, first compound 0.1 µM
[30] = second compound 10 µM, first compound 0.316 µM
[31] = second compound 10 µM, first compound 1 µM

Compound `Cn1nccc1Nc1nccc(-c2ccn(C(CO)c3ccc(Cl)c(F)c3)c(=O)c2)n1` (centres undefined) + CCN1CCN(Cc2ccc(Nc3ncc(F)c(-c4cc(F)c5nc(C)n(C(C)C)c5c4)n3)nc2)CC1 has an IC50 (curve of first compound, second compound 0.01 µM) of 106 nM, an IC50 (curve of first compound, second compound 0.0316 µM) of under 31.6 nM and an IC50 [1] of under 31.6 nM. The IC50 [2] was under 31.6 nM, the IC50 [3] was under 31.6 nM and the viability, T/C (second compound 0.01 µM, first compound 0.0316 µM) was 58%. For the same compound, the viability, T/C (second compound 0.01 µM, first compound 0.1 µM) was 50.2%, the viability, T/C (second compound 0.01 µM, first compound 0.316 µM) was 41.8% and the viability, T/C (second compound 0.01 µM, first compound 1 µM) was 37%. The viability, T/C (second compound 0.01 µM, first compound 3.16 µM) was 29.8%, the viability, T/C (second compound 0.01 µM, first compound 10 µM) was 21.9% and the viability, T/C (second compound 0.0316 µM, first compound 0.0316 µM) was 45.3%. The viability, T/C (second compound 0.0316 µM, first compound 0.1 µM) was 42.2%, the viability, T/C (second compound 0.0316 µM, first compound 0.316 µM) was 35.6% and the viability, T/C (second compound 0.0316 µM, first compound 1 µM) was 28.4%. The viability, T/C (second compound 0.0316 µM, first compound 3.16 µM) was 24.1%, the viability, T/C (second compound 0.0316 µM, first compound 10 µM) was 23.9% and the viability, T/C [4] was 34.8%. For the same compound, the viability, T/C [5] was 34.1%, the viability, T/C [6] was 27.6% and the viability, T/C [7] was 24%. For the same compound, the viability, T/C [8] was 19.9%, the viability, T/C [9] was 19.2% and the viability, T/C [10] was 29.6%. For the same compound, the viability, T/C [11] was 27.2%, the viability, T/C [12] was 20.7% and the viability, T/C [13] was 20.6%. The viability, T/C [14] was 20.2%, the viability, T/C [15] was 18.8% and the viability, T/C [16] was 30.5%. It also gave a viability, T/C [17] of 25.7%, a viability, T/C [18] of 19.3% and a viability, T/C [19] of 20.7%. For the same compound, the viability, T/C [20] was 18.6% and the viability, T/C [21] was 18.7%.
In the case of `CC(C)(C)c1cnc(CSc2cnc(NC(=O)C3CCNCC3)s2)o1`, the viability, T/C (compound 0.00949 µM) is reported as 109%, the viability, T/C (compound 0.03 µM) is reported as 118% and 115% and the viability, T/C (compound 0.0949 µM) is reported as 120% and 105%. For the same compound, the viability, T/C (compound 0.3 µM) was 1.96% and 1.34%, the viability, T/C (compound 0.949 µM) was 1.07% and 1.11% and the viability, T/C (compound 3 µM) was 0.92% and 1.78%. For the same compound, the IC50 (curve of compound) was 184 nM and 175 nM.
With `CC(=O)c1c(C)c2cnc(Nc3ccc(N4CCNCC4)cn3)nc2n(C2CCCC2)c1=O` the viability, T/C (compound 0.000949 µM) was 103% and 105%, the viability, T/C (compound 0.003 µM) was 88.5% and 88.2% and the viability, T/C (compound 0.00949 µM) was 74% and 79.3%. The viability, T/C (compound 0.03 µM) was 57.7% and 57.8%, the viability, T/C (compound 0.0949 µM) was 42.3% and 46% and the viability, T/C (compound 0.3 µM) was 38.7% and 38.9%. For the same compound, the IC50 (curve of compound) was 56.4 nM and 70.1 nM.
In the case of `C=CCn1c(=O)c2cnc(Nc3ccc(N4CCN(C)CC4)cc3)nc2n1-c1cccc(C(C)(C)O)n1`, the viability, T/C (compound 0.0316 µM) is reported as 99.7% and 119%, the viability, T/C (compound 0.1 µM) is reported as 84.6% and 96.2% and the viability, T/C (compound 0.316 µM) is reported as 34.6% and 37.5%. The viability, T/C (compound 1 µM) was 18.5% and 17.7%, the viability, T/C (compound 3.16 µM) was 16.1% and 15.1% and the viability, T/C (compound 10 µM) was 21.8% and 20.7%. The IC50 (curve of compound) was 221 nM and 246 nM.
With `Cn1ncnc1[C@H]1c2n[nH]c(=O)c3cc(F)cc(c23)N[C@@H]1c1ccc(F)cc1` the viability, T/C (compound 0.000316 µM) was 99.2% and 96.9%, the viability, T/C (compound 0.001 µM) was 92.1% and 94% and the viability, T/C (compound 0.00316 µM) was 81.4% and 85.3%. For the same compound, the viability, T/C (compound 0.01 µM) was 79.3% and 79.6%, the viability, T/C (compound 0.0316 µM) was 77.7% and 75.4% and the viability, T/C (compound 0.1 µM) was 67.3% and 69.8%. It also gave an IC50 (curve of compound) of over 100 nM.
In the case of `COc1c(OCCCN2CCOCC2)ccc2c3n(c(=NC(=O)c4cnc(N)nc4)nc12)CCN3` + CC(C)NCC(C(=O)N1CCN(c2ncnc3c2C(C)CC3O)CC1)c1ccc(Cl)cc1, the IC50 [1] is reported as 50.9 nM, the IC50 [2] is reported as 27.7 nM and the IC50 [3] is reported as 16.1 nM. It also gave an IC50 [22] of 4.7 nM, an IC50 [23] of under 3.16 nM and a viability, T/C (second compound 0.1 µM, first compound 0.00316 µM) of 85.3%. It also gave a viability, T/C (second compound 0.1 µM, first compound 0.01 µM) of 70.1%, a viability, T/C [4] of 57.4% and a viability, T/C [5] of 42.3%. For the same compound, the viability, T/C [6] was 34.1%, the viability, T/C [7] was 40.3% and the viability, T/C (second compound 0.316 µM, first compound 0.00316 µM) was 71%. The viability, T/C (second compound 0.316 µM, first compound 0.01 µM) was 59.4%, the viability, T/C [10] was 51.7% and the viability, T/C [11] was 37.5%. For the same compound, the viability, T/C [12] was 31.7%, the viability, T/C [13] was 41% and the viability, T/C (second compound 1 µM, first compound 0.00316 µM) was 62.6%. For the same compound, the viability, T/C (second compound 1 µM, first compound 0.01 µM) was 54.4%, the viability, T/C [16] was 43.9% and the viability, T/C [17] was 36.3%. The viability, T/C [18] was 28.2%, the viability, T/C [19] was 41.9% and the viability, T/C (second compound 3.16 µM, first compound 0.00316 µM) was 52.1%. For the same compound, the viability, T/C (second compound 3.16 µM, first compound 0.01 µM) was 47%, the viability, T/C [24] was 37.1% and the viability, T/C [25] was 30.4%. For the same compound, the viability, T/C [26] was 25.2%, the viability, T/C [27] was 32.5% and the viability, T/C (second compound 10 µM, first compound 0.00316 µM) was 33.6%. It also gave a viability, T/C (second compound 10 µM, first compound 0.01 µM) of 31.9%, a viability, T/C [28] of 28.2% and a viability, T/C [29] of 22.6%. The viability, T/C [30] was 20% and the viability, T/C [31] was 31.1%.
`C=CCn1c(=O)c2cnc(Nc3ccc(N4CCN(C)CC4)cc3)nc2n1-c1cccc(C(C)(C)O)n1` + CC(C)NCC(C(=O)N1CCN(c2ncnc3c2C(C)CC3O)CC1)c1ccc(Cl)cc1 was tested, and the IC50 [1] was 219 nM, the IC50 [2] was 188 nM and the IC50 [3] was 170 nM. For the same compound, the IC50 [22] was 91.4 nM, the IC50 [23] was under 31.6 nM and the viability, T/C [4] was 93%. For the same compound, the viability, T/C [5] was 86.6%, the viability, T/C [6] was 32.9% and the viability, T/C [7] was 17.8%. For the same compound, the viability, T/C [8] was 16.4%, the viability, T/C [9] was 20.5% and the viability, T/C [10] was 92.5%. It also gave a viability, T/C [11] of 74.4%, a viability, T/C [12] of 30.1% and a viability, T/C [13] of 17.3%. It also gave a viability, T/C [14] of 15.3%, a viability, T/C [15] of 19.6% and a viability, T/C [16] of 76.7%. The viability, T/C [17] was 68.4%, the viability, T/C [18] was 28.3% and the viability, T/C [19] was 16.7%. The viability, T/C [20] was 15.5%, the viability, T/C [21] was 17.4% and the viability, T/C [24] was 60.6%. The viability, T/C [25] was 48.8%, the viability, T/C [26] was 26.2% and the viability, T/C [27] was 15.1%. The viability, T/C (second compound 3.16 µM, first compound 3.16 µM) was 14.6%, the viability, T/C (second compound 3.16 µM, first compound 10 µM) was 16.9% and the viability, T/C [28] was 44.6%. For the same compound, the viability, T/C [29] was 32.5%, the viability, T/C [30] was 21.2% and the viability, T/C [31] was 15.3%. It also gave a viability, T/C (second compound 10 µM, first compound 3.16 µM) of 15% and a viability, T/C (second compound 10 µM, first compound 10 µM) of 16.6%.
In the case of `Cc1nc(NC(=O)N2CCCC2C(N)=O)sc1-c1ccnc(C(C)(C)C(F)(F)F)c1` (centres undefined), the viability, T/C (compound 0.0316 µM) is reported as 92.2% and 88.6%, the viability, T/C (compound 0.1 µM) is reported as 74.9% and 72.1% and the viability, T/C (compound 0.316 µM) is reported as 68.2% and 66%. The viability, T/C (compound 1 µM) was 65.7% and 73.6%, the viability, T/C (compound 3.16 µM) was 66.8% and 71.2% and the viability, T/C (compound 10 µM) was 62.7% and 60.5%. The IC50 (curve of compound) was over 10000 nM.
In the case of `COc1c(OCCCN2CCOCC2)ccc2c3n(c(=NC(=O)c4cnc(N)nc4)nc12)CCN3`, the viability, T/C (compound 0.00316 µM) is reported as 84% and 88.5%, the viability, T/C (compound 0.01 µM) is reported as 70.3% and 69.2% and the viability, T/C (compound 0.0316 µM) is reported as 55.8% and 53.5%. For the same compound, the viability, T/C (compound 0.1 µM) was 43.3% and 42%, the viability, T/C (compound 0.316 µM) was 34.1% and 33.4% and the viability, T/C (compound 1 µM) was 37.6% and 40.3%. For the same compound, the IC50 (curve of compound) was 50.1 nM and 39.5 nM.
With `C=CC(=O)N1CCN(c2nc(=O)n(-c3c(C)ccnc3C(C)C)c3nc(-c4c(O)cccc4F)c(F)cc23)C(C)C1` (centres undefined) the viability, T/C (compound 0.0316 µM) was 106% and 110%, the viability, T/C (compound 0.1 µM) was 111% and 109% and the viability, T/C (compound 0.316 µM) was 109% and 117%. For the same compound, the viability, T/C (compound 1 µM) was 124% and 140%, the viability, T/C (compound 3.16 µM) was 122% and 126% and the viability, T/C (compound 10 µM) was 82% and 84.4%. The IC50 (curve of compound) was over 10000 nM.
